Reference: patent US8193237B2, “Indole derivative having IκB kinase β inhibitory activity” (Santen Pharmaceutical Co., Ltd., priority 2007, dated 2012)

target: T1, IKKβ (Homo sapiens, UniProt O14920); assay: IKKβ inhibition assay by fluorescence polarization (IMAP kit); format: biochemical; conditions: test compound at 1 μM; inhibition rate exceeding 100% is indicated as 100%
T1 construct: purchased Upstate Biotechnology Inc. 14-485
T1 sequence (O14920 1-756): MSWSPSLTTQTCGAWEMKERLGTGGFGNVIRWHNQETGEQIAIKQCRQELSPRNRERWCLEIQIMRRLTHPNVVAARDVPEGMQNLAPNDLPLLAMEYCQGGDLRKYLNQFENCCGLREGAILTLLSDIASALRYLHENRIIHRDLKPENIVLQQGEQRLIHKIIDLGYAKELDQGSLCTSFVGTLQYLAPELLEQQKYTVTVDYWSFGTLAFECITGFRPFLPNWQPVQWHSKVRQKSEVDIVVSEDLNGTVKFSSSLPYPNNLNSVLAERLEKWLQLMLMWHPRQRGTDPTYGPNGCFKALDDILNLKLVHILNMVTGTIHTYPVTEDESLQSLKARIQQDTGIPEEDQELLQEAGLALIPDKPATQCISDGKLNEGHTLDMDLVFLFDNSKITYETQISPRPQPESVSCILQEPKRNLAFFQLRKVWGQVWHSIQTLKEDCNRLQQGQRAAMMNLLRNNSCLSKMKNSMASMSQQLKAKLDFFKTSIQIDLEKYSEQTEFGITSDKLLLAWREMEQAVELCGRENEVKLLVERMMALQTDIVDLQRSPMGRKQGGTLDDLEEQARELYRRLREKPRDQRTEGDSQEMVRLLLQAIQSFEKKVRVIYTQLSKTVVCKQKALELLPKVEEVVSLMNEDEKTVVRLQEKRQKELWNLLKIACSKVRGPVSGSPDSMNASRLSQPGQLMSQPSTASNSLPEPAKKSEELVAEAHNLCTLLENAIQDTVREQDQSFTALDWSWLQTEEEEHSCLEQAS
Procedure: In order to evaluate IKKβ inhibitory activity of the present compounds, an IKKβ inhibition assay by the fluorescence polarization method was conducted.
The assay was conducted using IMAP™ IKKβ assay kit (manufactured by Molecular Devices Corporation, catalogue No. R8115) or IMAP™ FP Screening Express kit (manufactured by Molecular Devices Corporation, catalogue No. R8127) and in accordance with the protocol attached to each kit. The specific methods are described below. (Preparation of Reagents)
1) Complete Reaction Buffer: a complete reaction buffer was so prepared as to obtain a final concentration of 10 mM Tris-HCL (pH 7.2), 10 mM magnesium chloride, 0.1% bovine serum albumin, and 1 mM dithiothreitol.
2) Substrate Working Solution: 400 nM of a substrate working solution was prepared by dissolving and diluting a fluorescein-labeled IKKβ substrate peptide (amino acid sequence: GRHDSGLDSMK) with the complete reaction buffer.
3) Enzyme Working Solution: 0.2 units/mL of an enzyme working solution was prepared by diluting IKKβ solution (manufactured by Upstate Biotechnology Inc., catalogue No. 14-485) with the complete reaction buffer.
4) ATP Working Solution: 8 μM of an ATP working solution was prepared by dissolving ATP into ultrapure water followed by diluting it with the complete reaction buffer.
5) IMAP binding solution: After diluting an IMAP binding buffer with ultrapure water, an IMAP binding solution was prepared by diluting an IMAP binding reagent with the diluted IMAP binding buffer.
A test compound was dissolved in dimethylsulfoxide followed by diluting it with the complete reaction buffer to prepare 4 μM of a test compound solution.
1) To a 384-well plate, the test compound solution, the enzyme working solution, the substrate working solution, and the ATP working solution were added in an amount of 5 μL per well.
2) Incubation was performed at a room temperature for 60 minutes under light shielding.
3) The IMAP binding solution was added in an amount of 60 μL per well.
4) Incubation was performed at a room temperature for 30 minutes under light shielding.
5) Fluorescence polarization value of each well was measured by using Analyst™ HT (multimode plate reader manufactured by Molecular Devices Corporation) and Criterion Host Software v2.00 (manufactured by Molecular Devices Corporation).
6) Operations were performed in the same manner as in 1) to 5) except for changing the test compound to 0.4% dimethylsulfoxide. The obtained result was designated as a control.
7) Operations were performed in the same manner as in 1) to 5) except for changing the test compound and the enzyme working solution to 0.4% dimethylsulfoxide and the complete reaction buffer, respectively. The obtained result was designated as a background.
An IKKβ inhibition rate (%) was calculated by the following equation.
IKKβ inhibition rate (%)=100×{1−(fluorescence polarization value of test compound−fluorescence polarization value of background)/(fluorescence polarization value of control−fluorescence polarization value of background)}

| inhibition at 1 µM [%] | SMILES |
| --- | --- |
| 97 | NC(=O)Nc1[nH]c2cc(-c3cccc(CCO)c3)ccc2c1C(N)=O [Compound 7-5] |
| 98 | NC(=O)Nc1[nH]c2cc(-c3ccncc3)ccc2c1C(N)=O [Compound 7-9] |
| 100 | COc1cc(-c2ccc3c(C(N)=O)c(NC(N)=O)[nH]c3c2)ccc1CO [Compound 7-14] |
| 98 | NC(=O)Nc1[nH]c2cc(-c3ccnc(Cl)c3)ccc2c1C(N)=O [Compound 7-26] |
| 100 | C[C@@H](O)c1cccc(-c2ccc3c(C(N)=O)c(NC(N)=O)[nH]c3c2)c1 [Compound 7-44] |
| 98 | C[C@H](O)c1cccc(-c2ccc3c(C(N)=O)c(NC(N)=O)[nH]c3c2)c1 [Compound 7-45] |
| 100 | NCc1ccc(-c2ccc3c(C(N)=O)c(NC(N)=O)[nH]c3c2)cc1 [Compound 8-3] |
| 100 | CC(N)c1ccc(-c2ccc3c(C(N)=O)c(NC(N)=O)[nH]c3c2)cc1 (stereo not drawn) [Compound 8-5] |
| 99 | CC(C)(N)c1ccc(-c2ccc3c(C(N)=O)c(NC(N)=O)[nH]c3c2)cc1 [Compound 8-6] |
| 87 | NC(=O)Nc1[nH]c2cc(C#Cc3ccccc3)ccc2c1C(N)=O [Compound 9-1, 2-Aminocarbonylamino-6-phenylethynylindole-3-carboxamide] |
| 95 | NC(=O)Nc1[nH]c2cc(C#CCO)ccc2c1C(N)=O [Compound 9-2, 2-Aminocarbonylamino-6-(3-hydroxy-1-propynyl) indole-3-carboxamide] |
| 94 | CN(C)CC#Cc1ccc2c(C(N)=O)c(NC(N)=O)[nH]c2c1 [Compound 9-18, 2-Aminocarbonylamino-6-(3-dimethylamino-1-propynyl) indole-3-carboxamide] |
| 100 | C#Cc1ccc2c(C(N)=O)c(NC(N)=O)[nH]c2c1 [Compound 10-1, 2-aminocarbonylamino-6-ethynylindole-3-carboxamide] |
| 95 | CCc1ccc2c(C(N)=O)c(NC(N)=O)[nH]c2c1 [Compound 11-1, 2-Aminocarbonylamino-6-ethylindole-3-carboxamide] |
| 100 | NC(=O)Nc1[nH]c2cc(C3CCCCC3)ccc2c1C(N)=O [Compound 11-4, 2-Aminocarbonylamino-6-cyclohexylindole-3-carboxamide] |
| 98 | NC(=O)Nc1[nH]c2cc(CCCCO)ccc2c1C(N)=O [Compound 11-6, 2-Aminocarbonylamino-6-(4-hydroxybutyl)indole-3-carboxamide] |
| 95 | CN(C)CCCc1ccc2c(C(N)=O)c(NC(N)=O)[nH]c2c1 [Compound 11-8, 2-Aminocarbonylamino-6-(3-dimethylaminopropyl) indole-3-carboxamide] |
| 94 | COCCCc1ccc2c(C(N)=O)c(NC(N)=O)[nH]c2c1 [Compound 11-10, 2-Aminocarbonylamino-6-(3-methoxypropyl)indole-3-carboxamide] |
| 100 | NC(=O)Nc1[nH]c2cc(-c3cccc(CO)c3)ccc2c1C(N)=O [Compound 12-1, 2-aminocarbonylamino-6-(3-hydroxymethylphenyl)indole-3-carboxamide] |
| 99 | NC(=O)Nc1[nH]c2cc(-c3ccc(CO)o3)ccc2c1C(N)=O [Compound 12-2, 2-Aminocarbonylamino-6-(5-hydroxymethylfuran-2-yl) indole-3-carboxamide] |
| 100 | CC(C)NCc1cccc(-c2ccc3c(C(N)=O)c(NC(N)=O)[nH]c3c2)c1 [Compound 13-5, 2-Aminocarbonylamino-6-(3-isopropylaminomethylphenyl) indole-3-carboxamide] |
| 100 | NC(=O)Nc1[nH]c2cc(-c3cccc(CNCCO)c3)ccc2c1C(N)=O [Compound 13-13, 2-Aminocarbonylamino-6-[3-(2-hydroxyethylaminomethyl)phenyl]indole-3-carboxamide] |
| 100 | NC(=O)Nc1[nH]c2cc(-c3ccc(CNC4CC4)o3)ccc2c1C(N)=O [Compound 13-15, 2-Aminocarbonylamino-6-(5-cyclopropylaminomethylfuran-2-yl)indole-3-carboxamide] |
| 98 | CNCc1ccc(-c2ccc3c(C(N)=O)c(NC(N)=O)[nH]c3c2)s1 [Compound 13-24, 2-Aminocarbonylamino-6-(5-methylaminomethylthiophen-2-yl)indole-3-carboxamide] |
| 78 | NC(=O)Nc1[nH]c2cc(CO)ccc2c1C(N)=O [Compound 16-1, 2-Aminocarbonylamino-6-hydroxymethylindole-3-carboxamide] |
| 100 | NC(=O)Nc1[nH]c2cc(C3SCCS3)ccc2c1C(N)=O [Compound 20-1, 2-Aminocarbonylamino-6-(1,3-dithiolan-2-yl)indole-3-carboxamide] |
| 70 | NC(=O)Nc1[nH]c2cc(C(=O)N3CCCC3)ccc2c1C(N)=O [Compound 22-2] |
| 100 | NC(=O)Nc1[nH]c2cc(C(=O)NCc3ccccc3)ccc2c1C(N)=O [Compound 22-9] |
| 100 | NC(=O)Nc1[nH]c2cc(CN3CCCC3)ccc2c1C(N)=O [Compound 24-2] |
| 100 | CCSCc1ccc2c(C(N)=O)c(NC(N)=O)[nH]c2c1 [Compound 25-3] |
